Data from US8871778B2, “Substituted pyrimidine compounds and their use as SYK inhibitors” (Genosco, priority 2012, dated 2014).
Each block holds one compound with its values, some of them ahead of it.

How the values were obtained:
full-length human SYK = full-length human SYK (Homo sapiens (Human), UniProt P43405); test: Inhibition of enzymatic SYK kinase activity (LANCE Ulight-TK peptide, Eu-antibody, 665 nm emission); format: biochemical; conditions: ATP at Km (15 uM)
[1] = biological target: full-length human KDR (VEGFR2) (Homo sapiens (Human), UniProt P35968); test: Inhibition of enzymatic KDR kinase activity (LANCE Ulight-JAK1 peptide, Eu-antibody, 665 nm emission); format: biochemical; conditions: ATP at Km (15 uM)
Sequence of full-length human KDR (VEGFR2) (P35968 20-1356): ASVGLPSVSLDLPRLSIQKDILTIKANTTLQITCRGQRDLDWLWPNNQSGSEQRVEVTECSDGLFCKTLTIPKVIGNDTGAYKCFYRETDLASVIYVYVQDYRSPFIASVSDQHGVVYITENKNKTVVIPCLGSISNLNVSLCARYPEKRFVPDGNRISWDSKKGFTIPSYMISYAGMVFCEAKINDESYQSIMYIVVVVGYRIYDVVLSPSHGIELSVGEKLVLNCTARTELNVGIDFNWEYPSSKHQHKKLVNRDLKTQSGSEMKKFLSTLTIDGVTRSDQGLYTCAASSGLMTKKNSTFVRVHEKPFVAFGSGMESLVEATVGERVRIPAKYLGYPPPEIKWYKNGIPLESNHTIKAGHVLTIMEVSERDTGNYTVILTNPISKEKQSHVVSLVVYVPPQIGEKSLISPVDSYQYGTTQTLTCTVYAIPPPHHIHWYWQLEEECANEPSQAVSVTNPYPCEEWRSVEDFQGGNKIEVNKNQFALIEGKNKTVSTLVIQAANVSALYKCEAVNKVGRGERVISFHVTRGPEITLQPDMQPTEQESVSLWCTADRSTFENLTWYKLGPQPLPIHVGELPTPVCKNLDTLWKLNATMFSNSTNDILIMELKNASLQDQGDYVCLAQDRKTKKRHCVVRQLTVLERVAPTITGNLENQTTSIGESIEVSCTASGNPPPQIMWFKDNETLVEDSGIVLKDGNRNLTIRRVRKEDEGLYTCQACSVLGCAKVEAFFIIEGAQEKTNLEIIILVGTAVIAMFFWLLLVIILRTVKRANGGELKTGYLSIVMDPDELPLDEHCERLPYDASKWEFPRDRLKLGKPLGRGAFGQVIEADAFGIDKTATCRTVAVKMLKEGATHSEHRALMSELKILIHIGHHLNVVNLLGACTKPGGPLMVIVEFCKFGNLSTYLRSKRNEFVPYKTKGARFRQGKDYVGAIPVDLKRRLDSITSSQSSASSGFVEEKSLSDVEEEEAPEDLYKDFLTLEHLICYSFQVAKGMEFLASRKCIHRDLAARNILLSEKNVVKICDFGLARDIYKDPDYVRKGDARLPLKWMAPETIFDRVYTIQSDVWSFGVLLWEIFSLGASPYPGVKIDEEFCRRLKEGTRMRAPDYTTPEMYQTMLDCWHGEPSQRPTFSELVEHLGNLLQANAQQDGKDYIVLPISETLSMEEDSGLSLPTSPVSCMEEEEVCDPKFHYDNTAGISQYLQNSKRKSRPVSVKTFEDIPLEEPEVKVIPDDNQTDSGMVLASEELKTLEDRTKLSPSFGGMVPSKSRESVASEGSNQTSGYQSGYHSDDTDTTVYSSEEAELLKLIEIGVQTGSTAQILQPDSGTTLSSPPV

[2] = tested on: CIA mouse model (DBA/1J mice); test: Collagen-induced arthritis (CIA) mouse model, macroscopic scoring of paws; format: in vivo; conditions: for Inhibition in arthritis phenotype indicated by CIA compared with R788 (in words): mouse, in vivo; for CIA index (arthritic score of test group / vehicle group x 100): 30 mg/kg/day oral gavage once daily, DBA/1J mice
THP-1 cells [3] = test: SYK-dependent TNF-α release assay (IgG stimulation), ELISA; format: cell-based, human; conditions: for IC50: human IgG-coated plate, 18 hours, SYK-dependent pathway, read-out: TNF-α release inhibition, IgG stimulation (IC50 nM)
THP-1 cells [4] = test: SYK-independent TNF-α release assay (lipopolysaccharide stimulation), ELISA; format: cell-based, human; conditions: SYK-independent pathway; for IC50: LPS, 18 hours, read-out: TNF-α release inhibition, LPS stimulation (IC50 nM)

- IC50 (full-length human SYK): 190 nM
SMILES: Cc1cn(-c2ccnc(Nc3ccc4c(ccn4C)c3)n2)cc1CN1CC(O)C1 [Compound 52, 1-((4-methyl-1-(2-(1-methyl-1H-indol-5-ylamino)pyrimidin-4-yl)-1H-pyrrol-3-yl)methyl)azetidin-3-ol]

SMILES: Cc1nn(-c2ccnc(Nc3ccc4c(c3)c(Cl)c(C)n4C)n2)cc1CN1CC(O)C1 [Compound 141, 1-((1-(2-(3-chloro-1,2-dimethyl-1H-indol-5-ylamino)pyrimidin-4-yl)-3-methyl-1H-pyrazol-4-yl)methyl)azetidin-3-ol]
- IC50 [1]: 192 nM
- Inhibition in arthritis phenotype indicated by CIA compared with R788 (in words) [2]: stronger inhibition

SMILES: Cc1nn(-c2ccnc(Nc3ccc4c(c3)c(Cl)cn4C)n2)cc1CN1CC(O)C1 [Compound 144, 1-((1-(2-(3-Chloro-1-methyl-1H-indol-5-ylamino)pyrimidin-4-yl)-3-methyl-1H-pyrazol-4-yl)methyl)azetidin-3-ol]
- Inhibition in SYK dependent TNF-α release assay compared with R406 (in words) (THP-1 cells [3]; IgG stimulated release): stronger inhibition than R406
- IC50 (THP-1 cells [3]): 13 nM
- IC50 (THP-1 cells [4]; Homo sapiens): 1140 nM
- Inhibition in LPS stimulated TNF-α production (in words) (THP-1 cells [4]): no inhibition
- Inhibition in arthritis phenotype indicated by CIA compared with R788 (in words) [2]: stronger inhibition

- IC50 (THP-1 cells [3]): 20 nM
- IC50 (THP-1 cells [4]; Homo sapiens): > 1000 nM
SMILES: Cc1nn(-c2ccnc(Nc3ccc4c(c3)c(C(=O)C(F)(F)F)cn4C)n2)cc1CN1CC(O)C1 [Compound 151, 2,2,2-Trifluoro-1-(5-(4-(4-((3-hydroxyazetidin-1-yl)methyl)-3-methyl-1H-pyrazol-1-yl)pyrimidin-2-ylamino)-1-methyl-1H-indol-3-yl)ethanone]

SMILES: Cc1nn(-c2ccnc(Nc3ccc4c(cnn4C)c3)n2)cc1CN1CC(O)C1 [Compound 160, 1-((3-Methyl-1-(2-(1-methyl-1H-indazol-5-ylamino)pyrimidin-4-yl)-1H-pyrazol-4-yl)methyl)azetidin-3-ol]
- IC50 (THP-1 cells [3]): 91 nM
- IC50 (THP-1 cells [4]; Homo sapiens): 934 nM

SMILES: Cc1nn(-c2ccnc(Nc3ccc4c(c3)c(Cl)c(C)n4C)n2)cc1CN1CC[C@@H](O)C1 [Compound 189, (R)-1-((1-(2-(3-Chloro-1,2-dimethyl-1H-indol-5-ylamino)pyrimidin-4-yl)-3-methyl-1H-pyrazol-4-yl)methyl)pyrrolidin-3-ol]
- IC50 (THP-1 cells [3]): 42 nM
- IC50 (THP-1 cells [4]; Homo sapiens): 2800 nM

- IC50 (THP-1 cells [3]): 171 nM
SMILES: COc1cc(Nc2ncc(F)c(Nc3ccc4c(n3)NC(=O)C(C)(C)O4)n2)cc(OC)c1OC [Compound R406, reference compound]

SMILES: COc1cc(Nc2ncc(F)c(Nc3ccc4c(n3)N(COP(=O)(O)O)C(=O)C(C)(C)O4)n2)cc(OC)c1OC [Compound R788]
- CIA index (arthritic score of test group / vehicle group x 100) ([2]; day 6): 41.9 ± 7.5%
- CIA index (arthritic score of test group / vehicle group x 100) ([2]; day 9): 49.6 ± 9.4%
- CIA index (arthritic score of test group / vehicle group x 100) ([2]; day 12): 68.3 ± 8.6%
- CIA index (arthritic score of test group / vehicle group x 100) ([2]; day 15): 74.1 ± 7.1%
- CIA index (arthritic score of test group / vehicle group x 100) ([2]; day 18): 79.4 ± 10.7%
- CIA index (arthritic score of test group / vehicle group x 100) ([2]; day 21): 80.1 ± 6.7%

- IC50 (THP-1 cells [4]): 431 nM
SMILES: C[C@@H]1C[C@H]2[C@@H]3CCC4=CC(=O)C=C[C@]4(C)[C@@]3(F)[C@@H](O)C[C@]2(C)[C@@]1(O)C(=O)CO [Dexamethasone]
